Here are results for two compounds from patent US12364692B2, “Topical naloxone compositions and methods for using the same” (Teikoku Pharma USA, Inc., priority 2020, dated 2025).

The conditions of data set [1]: control and treatments other than hydrogen peroxide (5N hydrochloric acid, 5N sodium hydroxide 18 hours, 60° C. 2 weeks); peak areas relative to total area.
Data set [2] concerns mice (HOS:HR-1 hairless) with atopic dermatitis skin symptoms. Kind of data set: Scratching behavior in hairless mouse model of atopic dermatitis pruritis. The format is in vivo. To be noted: FIGS. 3-6; topical 0.1 ml/day, days 34, 41, 48, 55. As for the experimental part:
Atopic dermatitis skin symptoms were induced by providing a special feed diet 10 to mice (HOS:HR-1 hairless). All groups were treated with daily 0.1 ml/day of ointment over the entire back of each mouse for three consecutive weeks starting on Day 34. Mice were video recorded predose (baseline activity) for 30 minutes and observed for scratching for a period of one hour post application on days 34, 35, 38, 41, 45, 48, and 55. The topical naloxone active agent composition was allowed to dry 15 for one (1) hour prior to video recording of scratching behavior. Scratching behavior was monitored every 5 minutes for an hour where the number of scratching bouts includes one or more of the following actions: hind leg raised, scratching the back or lowering the leg to the floor. Cumulative duration of scratching behavior was also determined. Trans-epidermal water loss (TEWL) measured on Days 34, 48, 55 20 (Phase 2) and Days 33 and 55 (Phase 3) was also measured.

Turning to `C=CCN1CC[C@]23c4c5ccc(O)c4O[C@H]2C(=O)CC[C@@]3(O)[C@H]1C5` [naloxone drug substance, naloxone], the total related substances result in data set [1] is recorded as “below 1%”.
On to `C=CCN1CC[C@]23c4c5ccc(O)c4O[C@H]2C(=O)CC[C@@]3(O)[C@H]1C5` [naloxone free base, naloxone], for which, in data set [2], the cumulative scratching duration entry is given as “decreased” and the mean scratching bouts entry is “decreased”.
